Experimental data taken from US6338963B1, “Use of carbon monoxide dependent guanylyl cyclase modifiers to stimulate neuritogenesis” (NeoTherapeutics, Inc., priority 1994, dated 2002).
Structures can show the parent of a compound that is named as a salt. Marks after values point to notes of the source that are not given here.

How the values were obtained:
[1] = test system: cultured rat hippocampal neurons; test: NMDA-induced toxicity in cultured rat hippocampal neurons, astrocyte conditioned medium; conditions: NMDA 100 μM pulse of 10 min.
Procedure: To determine whether or not AIT-082 afforded in vitro neuroprotection, the effect of AIT-082 on toxicity induced by N-methyl-D-aspartate (NMDA) in cultured rat hippocampal neurons was studied.
To determine whether AIT-082 protected against neuronal toxicity induced by NMDA, and whether astrocytes might be involved, cultured astrocytes were exposed to AIT-082 for 6 hr. The drug was then removed and cultures were kept in fresh medium for the following 20 hr. This conditioned medium was then added to primary cultures of rat hippocampal neurons on the seventh day in vitro, immediately after they had been exposed to a toxic pulse of NMDA.
It was next evaluated whether the addition of conditioned medium (CM) deriving from astrocyte cultures treated with 100 μM AIT-082 generated protection against damage induced by a toxic pulse with 100 μM NMDA in cultured neurons.
The effects of NMDA are shown in FIG. 66A on cortical cells and in FIG. 66B for hippocampal cells.

[2] = test system: cultured neurons from rat cerebral cortex; test: NMDA-induced toxicity in cultured rat cortical neurons, astrocyte conditioned medium; format: cell-based; conditions: NMDA pulse 100 μM for 10 min, Trypan blue or LDH
Procedure: In these experiments, cultured neurons were prepared from rat cerebral cortex. In these cultures the NMDA pulse (100 μM for 10 min) provoked about 80% neuronal death (measured by Trypan blue cell staining or LDH activity). Separately, cultured astrocytes were treated for 6 hours with AIT-082. Then, the medium containing the drug was replaced with fresh medium without the drug and the astrocyte cultures were maintained in this medium for the next 24 hours. This medium represented the CM and was added to neurons soon after the toxic pulse with NMDA. The addition of CM partly counteracted the toxic effects caused by NMDA, reducing the neuronal damage by about 50%. If the medium was boiled for 20 min at 100° C. prior to addition to NMDA-damaged neurons, it completely lost the protective activity. […] To verify whether the neuroprotection caused by AIT-082 was ascribable to the production of TGFβ2 or NGF, antibodies to TGFβ2 or to NGF (100 ng/ml) were added together with CM.
Conversely, when DPCPX (100 nm) was added to astrocyte cultures together with AIT-082, the neuroprotective effect of the resulting CM deriving from the culture of the astrocytes with AIT-082 was reduced by only 20%, as compared to the neuroprotective effect of CM derived from astrocytes exposed to AIT-082 alone (assumed as equal to 100%).

rat caudate nuclei = test: GAD activity in rat caudate nuclei damaged by NMDA; format: in vivo; conditions: NMDA 25-300 nmoles infused unilaterally, maximal lesion, 8 to 10 days
Procedure: The effect of AIT-082 on in vivo neuroprotection was also assessed by assaying for glutamic acid decarboxylase (GAD) activity.
GAD activity in rat caudate nuclei was damaged in vivo by NMDA. Increasing amounts of NMDA (25-300 nmoles) were unilaterally infused into caudate nuclei of rats. Eight to 10 days after the injections, glutarnic acid decarboxylase (GAD) activity was assayed, as an index of the loss of GABA-ergic neurons. NMDA produced a dose-dependent lesion, which at its maximal extension caused a reduction of GAD activity by 50% in comparison with that of contralateral sham-operated nuclei (control). […] The necrotic areas are in white, whereas the shadow is the surrounding edema GAD activity was evaluated by measuring the ex novo formation of [^3H]GABA from dissected striata exposed to 1 μCi of [^3H]glutamate for 1 hour at 37° C. GABA was assayed by HPLC with fluorescence detection and the [3H]label associated with GABA was measured.

Swiss Webster mice [3] = test: Win-shift T-maze memory test, Swiss Webster mice; format: in vivo; conditions: 90-second inter-trial interval, THA 1.25 mg/kg i.p.
Procedure: Male Swiss Webster mice six months (young adult) and eleven months (old) of age, obtained from the National Institute on Aging, were maintained in individual cages, on a […] light/dark cycle with continuous access to water. Food was limited so that the mice stabilized at 80% of free feeding weight. Mice were weighed and handled daily for one week. The win-shift model was run as described in the literature and consists of a T-maze in which the correct response alternates after each correct trial. The interval between trials is varied and allows for the determination of the longest period between trials that a subject can remember the correct response on the previous trial. This allows the measure of the duration of the memory trace. […] The reward goal box is alternated after each correct trial. Ten trials per mouse are run each day. […] The latency time to leave the start box is recorded as a measure of motivation, the running time (the time from leaving the start box to reaching the goal box) is recorded as a measure of performance, and the number of correct responses as a measure of memory.
(§1) The drugs used in this example are 4-((3-(1,6-dihydro-6-oxo-9-purin-9-yl)-1-oxopropyl)amino) benzoic acid (AIT-082), as an exemplary potassium salt, tacrine hydrochloride (tetrahydroaminoacridine, THA, Sigma Chemical Co., St. Louis, Mo.), and physostigmine, hemisulfate salt (PHY, Sigma Chemical Co., St. Louis, Mo.). The drugs were dissolved in saline and prepared fresh daily. All injections were made at a volume of 0.1 ml/10 grams body weight. When testing drug effects, intraperitoneal (i.p.) injections of AIT-082 or THA were made one hour prior to the start of testing. Due to its shorter duration of action, PHY was injected 30 minutes prior to testing. Control subjects receive a similar injection of saline (vehicle).
To determine the duration of the memory trace, subjects were administered drug or saline and 30 minutes (PHY) or 1 hour (AIT-082 or THA) later they were given a single reference run with the milk reward in both goal boxes. After the indicated inter-trial delay, subjects were returned to the start box and given the first test trial with the milk reward only in the goal box opposite to the one entered on the previous correct trial. The subjects were given 10 trials with the reward alternating only after correct responses.
To determine if tolerance to the biological effects of AIT-082 developed, drug or saline was administered daily for 18 days prior to the testing in the standard win-shift paradigm.

Swiss Webster mice [4] = test: Locomotor activity (spontaneous movements), Swiss Webster mice; format: in vivo; conditions: THA 1.25 mg/kg
Procedure: The activity of AIT-082 was compared with tacrine (THA) and physostigmine (PHY), experimental anticholinesterase agents which enhance memory in animals. The drugs were also evaluated for their effects on locomotor activity. In the win-shift memory paradigm, AIT-082 was evaluated for its ability to induce tolerance after 18 days of drug administration. In addition AIT-082 was tested for its activity to modify learning in a modified T-maze discrimination task.
as §1

| Compound | death of the cultured neurons [1] [%] | Count of Dead Cells (Trypan Blue Staining) ([1]; within 24 hours) | LDH ([1]; within 24 hours) [mOD/min] | neuronal death [2] | reduction of GAD activity versus contralateral sham-operated nuclei (rat caudate nuclei) [%] | Win-shift Memory Test, Correct responses (Swiss Webster mice [3]) | Locomotor Activity (Swiss Webster mice [4]) |
| --- | --- | --- | --- | --- | --- | --- | --- |
| CN[C@H](CC(=O)O)C(=O)O [NMDA, N-methyl-D-aspartate] | ~75 | 401.4 ± 27.3 | 262.8 ± 13.4 | about 80% | 50 | – | – |
| Nc1c2c(nc3ccccc13)CCCC2 [THA, tacrine hydrochloride, reference compound] | – | – | – | – | – | 7.1* Correct responses/10 trials | 671* Spontaneous movements per hour |
